Measurements taken from patent US20050101595A1, “N-containing cycloalkyl-substituted amino-thiazole derivatives and pharmaceutical compositions for inhibiting cell proliferation and methods for their use” (PFIZER INC., priority 2003, published 2005).
Counter-ions that a name gives are not always drawn. Like-named read-outs stand apart in the source and are kept apart here.

Legend:
[1] = target: human CDK4 and genetically truncated (1-264) cyclin D3 (Homo sapiens, UniProt P11802); assay: Inhibition of CDK4/Cyclin D Retinoblastoma Kinase Activity; assay type: biochemical; conditions: for Ki: apparent Ki, CDK4/truncated cyclin D3, Rb fragment substrate, 25 μM ATP
Procedure, shortened: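 Human CDK4/truncated cyclin D3 (1-264) complex from baculovirus-infected insect cells, 5 nM, phosphorylating Rb fragment (residues 386-928, His-tagged) with 25 μM [32/33P]ATP in HEPES pH 7.4, MgCl2, 2% DMSO at 30° C. for 20 min (60 min for tight binders). Filter-captured radioactivity by phosphorimager; apparent Ki from competitive or tight-binding fits.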

[2] = test system: HCT-116 cell line; assay: Inhibition of cell growth, tetrazolium salt (MTT) assay; assay type: cell-based; conditions: for IC50: Homo sapiens, HCT-116, 120 h, MTT, three to five days, read-out: HCT-116 IC50; for HCT-116 % Inhibition at 0.25 μM: 0.25 μM compound
Procedure, shortened: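 Cells in McCoy's 5A medium were left 4 h, then given graded compound concentrations in 0.5% (v/v) DMSO and incubated three to five days at 37° C (5% CO2). MTT was added to 0.2 mg/mL for 4 h more; DMSO-solubilized formazan was read at 540 nm against 0.5% DMSO-only controls.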

[3] = target: CDK2/Cyclin A (Homo sapiens, UniProt P24941); assay: Inhibition of CDK2/Cyclin A Retinoblastoma Kinase Activity; assay type: biochemical; conditions: for Ki: apparent Ki, CDK2/proteolyzed cyclin A, Rb fragment substrate, 25 μM ATP; for CDK2 % Inhibition At 0.03 μM: Table 2
Procedure, shortened: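 Baculovirus-expressed CDK2 complexed with proteolyzed cyclin A (10 or 19 nM), Rb fragment substrate, 25 μM [32P/33P]ATP, HEPES pH 7.4, 30 °C for 60 or 75 min under initial-rate conditions. Filter capture and phosphorimager readout; apparent Ki fitted to competitive or tight-binding competitive inhibition.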

[4] = 0.1 μM compound, HCT-116, Table 3

Sequence of human CDK4 and genetically truncated (1-264) cyclin D3 (P11802 whole entry, the tested form may be a part): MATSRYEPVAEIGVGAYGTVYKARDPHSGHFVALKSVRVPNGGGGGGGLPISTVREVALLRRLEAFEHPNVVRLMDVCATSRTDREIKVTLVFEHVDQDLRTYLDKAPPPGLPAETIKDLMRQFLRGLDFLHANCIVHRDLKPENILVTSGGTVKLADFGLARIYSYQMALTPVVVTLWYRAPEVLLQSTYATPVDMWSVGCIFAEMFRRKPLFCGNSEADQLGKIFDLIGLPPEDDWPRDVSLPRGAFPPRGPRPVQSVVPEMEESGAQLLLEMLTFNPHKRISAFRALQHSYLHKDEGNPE
Sequence of human CDK4 and genetically truncated (1-264) cyclin D3 (P30281 1-264 partner): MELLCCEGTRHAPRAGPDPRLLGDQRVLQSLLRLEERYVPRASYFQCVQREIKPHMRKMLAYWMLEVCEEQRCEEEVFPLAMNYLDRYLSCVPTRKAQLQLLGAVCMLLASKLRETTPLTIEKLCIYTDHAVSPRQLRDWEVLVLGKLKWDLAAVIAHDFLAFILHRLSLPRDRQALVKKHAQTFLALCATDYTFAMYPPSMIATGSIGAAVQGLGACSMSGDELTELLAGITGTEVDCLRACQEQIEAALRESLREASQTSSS

Compound: Nc1nc(NC2CCN(C(=O)c3c(F)ccc(F)c3F)CC2)sc1C(=O)c1c(F)cccc1F [Example R37]
- CDK4 % Inhibition at 0.03 μM ([1]; at 0.03 μM): 22%
- HCT-116 % Inhibition at 0.1 μM ([2]; HCT-116 cells, at 0.1 μM): 0%
- HCT-116 5 Inhibition at 0.25 μM ([2]; HCT-116 cells): 48
- CDK2 % Inhibition at 0.03 μM ([3]; at 0.03 μM): 27%

Compound: CN1CCC(c2ccc(S(=O)(=O)N3CCC(Nc4nc(N)c(C(=O)c5c(F)cccc5F)s4)CC3)cc2)C1 (stereo not drawn) [Example F25, 1-(4-Amino-2-[1-[4-(1-methyl-pyrrolidin-3-yl)-benzenesulfonyl]-piperidin-4-ylamino]-thiazol-5-yl}-1-(2,6-difluoro-phenyl)-methanone Dihydrochloride]
- Ki [1]: 0.93 nM
- IC50 ([2]; first HCT-116 column (c4)): 80 nM
- IC50 ([2]; second HCT-116 column (c5)): 300 nM
- Ki [3]: 1.5 nM

Compound: Nc1nc(NC2CCN(S(=O)(=O)c3ccc(N4CCC[C@@H]4CO)nc3)CC2)sc1C(=O)c1c(F)cccc1F [Example G13, 1-{4-Amino-2-{1-[6-(2R-hydroxymethyl-pyrrolidin-1-yl)-pyridine-3-sulfonyl]-piperidin-4-ylamino}-thiazol-5-yl)-1-(2,6-difluoro-phenyl)-methanone Trifluoroacetic Acid Salt]
- Ki [1]: 0.64 nM
- IC50 ([2]; first HCT-116 column (c4)): 170 nM
- IC50 ([2]; second HCT-116 column (c5)): 3900 nM
- Ki [3]: < 1 nM

Compound: Nc1nc(NC2CCN(C(=O)CC3CCCC3)CC2)sc1C(=O)c1c(F)cccc1F [Example R96]
- CDK4 % Inhibition at 0.03 μM ([1]; at 0.03 μM): −18%
- HCT-116 % Inhibition at 0.1 μM ([2]; HCT-116 cells, at 0.1 μM): 2%
- HCT-116 5 Inhibition at 0.25 μM ([2]; HCT-116 cells): 36
- CDK2 % Inhibition at 0.03 μM ([3]; at 0.03 μM): −20%

Compound: Nc1nc(NC2CCN(C(=O)Nc3cccc4ccccc34)CC2)sc1C(=O)c1c(F)cccc1F [Example O35]
- CDK4 % Inhibition at 0.03 μM ([1]; 0.03 μM compound, Table 2): 5%
- HCT-116 % Inhibition at 0.25 μM ([2]; HCT-116, Table 2): 0%
- CDK2 % Inhibition At 0.03 μM ([3]; 0.03 μM compound): 29%

Compound: CCOC(=O)CCCC(=O)N1CCC(Nc2nc(N)c(C(=O)c3c(F)cccc3F)s2)CC1 [Example R3]
- CDK4 % Inhibition at 0.03 μM ([1]; at 0.03 μM): 42%
- HCT-116 % Inhibition at 0.1 μM ([2]; HCT-116 cells, at 0.1 μM): 8%
- HCT-116 5 Inhibition at 0.25 μM ([2]; HCT-116 cells): 37
- CDK2 % Inhibition at 0.03 μM ([3]; at 0.03 μM): −6%

Compound: Nc1nc(NC2CCN(S(=O)(=O)c3ccc(N4CC[S+]([O-])CC4)nc3)CC2)sc1C(=O)c1c(F)cccc1F [Example G4, 1-(4-Amino-2-{1-[6-(1-oxo-thiomorpholine-4-yl)-pyridine-3-sulfonyl]-piperidin-4-ylamino}-thiazol-5-yl)-1-(2,6-difluoro-phenyl)-methanone]
- Ki [1]: 0.94 nM
- IC50 ([2]; first HCT-116 column (c4)): 1500 nM
- IC50 ([2]; second HCT-116 column (c5)): 5000 nM
- Ki [3]: 1.4 nM

Compound: Nc1nc(NC2CCN(C(=O)c3ccc4c(c3)OCO4)CC2)sc1C(=O)c1c(F)cccc1F [Example R7]
- CDK4 % Inhibition at 0.03 μM ([1]; at 0.03 μM): 29%
- HCT-116 % Inhibition at 0.1 μM ([2]; HCT-116 cells, at 0.1 μM): 7%
- HCT-116 5 Inhibition at 0.25 μM ([2]; HCT-116 cells): 46
- CDK2 % Inhibition at 0.03 μM ([3]; at 0.03 μM): −3%

Compound: COc1ccc(OC)c(NC(=O)N2CCC(Nc3nc(N)c(C(=O)c4c(F)cccc4F)s3)CC2)c1 [Example O9]
- CDK4 % Inhibition at 0.03 μM ([1]; 0.03 μM compound, Table 2): 2%
- HCT-116 % Inhibition at 0.25 μM ([2]; HCT-116, Table 2): 13%
- CDK2 % Inhibition At 0.03 μM ([3]; 0.03 μM compound): 35%

Compound: CCN(CC)CCOc1ccc(S(=O)(=O)N2CCC(Nc3nc(N)c(C(=O)c4c(F)cccc4F)s3)CC2)cn1 [Example H18, (4-Amino-2-{1-[6-(2-diethylamino-ethoxy)-pyridine-3-sulfonyl]-piperidin-4-ylamino}-thiazol-5-yl)-(2,6-difluoro-phenyl)-methanone Trifluoroacetic Acid Salt]
- Ki [1]: 0.3 nM
- IC50 ([2]; first HCT-116 column (c4)): 55 nM
- IC50 ([2]; second HCT-116 column (c5)): > 500 nM
- Ki [3]: 1.6 nM

Compound: CS(=O)(=O)CS(=O)(=O)N1CCC(Nc2nc(N)c(C(=O)c3c(F)cccc3F)s2)CC1 [Example P53]
- CDK4 % Inhibition at 0.03 μM ([1]; 0.03 μM compound, Table 3): 16%
- HCT-116 % Inhibition at 0.1 μM [2, 4]: 21%
- HCT-116 % Inhibition at 0.25 μM ([2]; HCT-116, Table 3): 27%
- CDK2 % Inhibition at 0.03 μM ([3]; 0.03 μM compound, Table 3): −23%

Compound: Cc1noc(C)c1S(=O)(=O)N1CCC(Nc2nc(N)c(C(=O)c3c(F)cccc3F)s2)CC1 [Example P51]
- CDK4 % Inhibition at 0.03 μM ([1]; 0.03 μM compound, Table 3): 27%
- HCT-116 % Inhibition at 0.1 μM [2, 4]: 18%
- HCT-116 % Inhibition at 0.25 μM ([2]; HCT-116, Table 3): 21%
- CDK2 % Inhibition at 0.03 μM ([3]; 0.03 μM compound, Table 3): 3%

Compound: Nc1nc(NC2CCN(C(=O)OCC3c4ccccc4-c4ccccc43)CC2)sc1C(=O)c1c(F)cccc1F [Example Q82]
- CDK4 % Inhibition at 0.03 μM ([1]; 0.03 μM compound, Table 4): 15%
- HCT-116 % Inhibition at 0.1 μM ([2]; 0.1 μM compound, HCT-116, Table 4): 0%
- HCT-116 % Inhibition at 0.25 μM ([2]; HCT-116, Table 4): 28%
- CDK2 % Inhibition at 0.03 μM ([3]; 0.03 μM compound, Table 4): −12%

Compound: Nc1nc(NC2CCN(C(=O)c3ccc(Cl)cc3)CC2)sc1C(=O)c1c(F)cccc1F [Example R144]
- CDK4 % Inhibition at 0.03 μM ([1]; at 0.03 μM): 46%
- HCT-116 % Inhibition at 0.1 μM ([2]; HCT-116 cells, at 0.1 μM): 0%
- HCT-116 5 Inhibition at 0.25 μM ([2]; HCT-116 cells): 38
- CDK2 % Inhibition at 0.03 μM ([3]; at 0.03 μM): 20%
